# Laboratory results reported in US20230398099A1, “METHODS OF TREATING CONDITIONS RELATED TO THE S1P1 RECEPTOR” (Arena Pharmaceuticals, Inc., priority 2020, published 2023).
# Where two headings read alike, the source gives them in different places.
# How the values were obtained:
# S1P2 Receptor = S1P2 Receptor (Homo sapiens, UniProt O95136); test: S1P2 receptor internalization; format: cell-based; conditions: N 5
# [1] = test system: OVA-induced acute asthma model in mice; test: ovalbumin (OVA)-induced acute asthma model; format: in vivo, mouse; conditions: QD Day 12-15; for immune cells in bronchoalveolar lavage (BAL): FIG. 9
# Description: The OVA model is a widely used pre-clinical allergic asthma model and recapitulates many of the hallmarks of allergic asthma in humans. These include elevated IgE and TH2 related cytokines, mucus hypersecretion, airway inflammation, goblet cell hyperplasia, epithelial hypertrophy, and airway hyperreactivity to stimuli.
# Mice were sensitized with an intraperitoneal (IP) injection of OVA and adjuvant on days 0 and 7. Mice were then challenged with intranasal delivery of OVA (10-200 μg) in saline on days 13-15 with endpoints conducted on day 16. Endpoints in this model generally included total and differential cell counts as well as inflammatory mediator content in the broncho-alveolar lavage fluid, airway hyperreactivity and detailed lung mechanics measured with the flexiVent™ rodent mechanical ventilator as well as histopathology and immunohistochemistry on lung sections.
# hS1P1 = hS1P1 (Homo sapiens, UniProt P21453); test: S1P1 GTPgS binding assay; format: biochemical; conditions: for EC50: S1P1 GTPgS binding, EC50 [95% confidence interval] (n)
# hS1P1, sequence (P21453 whole entry): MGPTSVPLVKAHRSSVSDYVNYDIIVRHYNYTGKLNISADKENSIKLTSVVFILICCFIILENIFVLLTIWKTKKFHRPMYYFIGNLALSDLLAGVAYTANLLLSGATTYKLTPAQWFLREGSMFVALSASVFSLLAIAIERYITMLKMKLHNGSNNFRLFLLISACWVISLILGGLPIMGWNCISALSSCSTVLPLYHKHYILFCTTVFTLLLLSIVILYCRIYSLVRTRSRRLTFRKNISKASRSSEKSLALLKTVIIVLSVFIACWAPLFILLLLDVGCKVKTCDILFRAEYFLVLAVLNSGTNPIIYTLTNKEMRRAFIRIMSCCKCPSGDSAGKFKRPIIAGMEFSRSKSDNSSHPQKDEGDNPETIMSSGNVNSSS
# hS1PR4 = biological target: T1, hS1PR4 (Homo sapiens, UniProt O95977); test: b-arrestin recruitment assay; format: cell-based; conditions: for EC50: EC50 [95% confidence interval] (n)
# T1 sequence (O95977 1-384): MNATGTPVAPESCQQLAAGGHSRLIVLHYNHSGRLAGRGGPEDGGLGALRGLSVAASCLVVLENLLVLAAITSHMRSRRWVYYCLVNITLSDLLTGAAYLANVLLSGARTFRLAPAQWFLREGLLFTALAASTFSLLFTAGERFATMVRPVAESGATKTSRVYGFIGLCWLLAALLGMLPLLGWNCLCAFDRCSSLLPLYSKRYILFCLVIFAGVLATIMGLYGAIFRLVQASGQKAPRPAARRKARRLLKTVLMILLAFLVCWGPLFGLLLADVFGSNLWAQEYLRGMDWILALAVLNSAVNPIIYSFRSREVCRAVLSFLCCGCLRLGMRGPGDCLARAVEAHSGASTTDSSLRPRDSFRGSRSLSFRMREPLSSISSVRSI
# hS1PR5 = hS1PR5 (Homo sapiens, UniProt Q9H228); test: b-arrestin recruitment assay; format: cell-based; conditions: for EC50: EC50 [95% confidence interval] (n)
# hS1PR5, sequence (Q9H228 whole entry): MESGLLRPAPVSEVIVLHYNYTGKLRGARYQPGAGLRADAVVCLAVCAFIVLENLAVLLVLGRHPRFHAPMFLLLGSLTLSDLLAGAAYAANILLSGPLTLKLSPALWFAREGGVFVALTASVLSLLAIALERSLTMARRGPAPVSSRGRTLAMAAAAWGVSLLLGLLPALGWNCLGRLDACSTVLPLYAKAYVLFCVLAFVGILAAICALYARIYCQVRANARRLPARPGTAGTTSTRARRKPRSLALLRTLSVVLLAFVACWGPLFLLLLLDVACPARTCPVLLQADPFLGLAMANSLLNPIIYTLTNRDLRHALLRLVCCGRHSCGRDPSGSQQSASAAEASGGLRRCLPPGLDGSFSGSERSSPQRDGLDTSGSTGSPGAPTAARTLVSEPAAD
# hS1PR1 = hS1PR1 (Homo sapiens, UniProt P21453); test: b-arrestin recruitment assay; format: cell-based; conditions: for EC50: b-arrestin recruitment, hS1PR1, EC50 [95% confidence interval] (n)
# hS1PR1, sequence (P21453 whole entry): as the sequence (P21453 whole entry) above
# [2] = test system: FITC-induced contact hypersensitivity (CHS)/dermatitis in BALB/c mice; test: mouse model of FITC-induced contact dermatitis; format: in vivo; conditions: for skin thickening (ear thickening): FIG. 8
# Excerpt: Fluorescein isothiocyanate isomer I (FITC) was used to induce contact hypersensitivity (CHS)/dermatitis in BALB/c mice by administering two sensitizing applications of the hapten onto the shaved flanks of the animals on Days 0 and 5, followed by three days of FITC challenge on the dorsal surface of both ears on Days 10-12. […] Treatment was initiated on Day −1 to model prophylactic treatment.
# hS1PR2 = hS1PR2 (Homo sapiens, UniProt O95136); test: b-arrestin recruitment assay; format: cell-based
# hS1PR2, sequence (O95136 whole entry): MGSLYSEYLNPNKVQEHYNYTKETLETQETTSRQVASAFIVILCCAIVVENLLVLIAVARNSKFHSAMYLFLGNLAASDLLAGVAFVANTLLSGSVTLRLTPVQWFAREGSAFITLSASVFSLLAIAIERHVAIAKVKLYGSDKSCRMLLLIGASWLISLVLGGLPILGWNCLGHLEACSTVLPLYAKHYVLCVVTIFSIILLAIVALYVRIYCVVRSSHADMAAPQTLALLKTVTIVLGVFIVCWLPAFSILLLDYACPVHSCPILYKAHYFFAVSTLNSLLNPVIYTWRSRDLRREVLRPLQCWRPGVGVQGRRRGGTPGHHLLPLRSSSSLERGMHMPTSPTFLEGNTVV
# hS1PR3 = hS1PR3 (Homo sapiens, UniProt Q99500); test: b-arrestin recruitment assay; format: cell-based
# hS1PR3, sequence (Q99500 whole entry): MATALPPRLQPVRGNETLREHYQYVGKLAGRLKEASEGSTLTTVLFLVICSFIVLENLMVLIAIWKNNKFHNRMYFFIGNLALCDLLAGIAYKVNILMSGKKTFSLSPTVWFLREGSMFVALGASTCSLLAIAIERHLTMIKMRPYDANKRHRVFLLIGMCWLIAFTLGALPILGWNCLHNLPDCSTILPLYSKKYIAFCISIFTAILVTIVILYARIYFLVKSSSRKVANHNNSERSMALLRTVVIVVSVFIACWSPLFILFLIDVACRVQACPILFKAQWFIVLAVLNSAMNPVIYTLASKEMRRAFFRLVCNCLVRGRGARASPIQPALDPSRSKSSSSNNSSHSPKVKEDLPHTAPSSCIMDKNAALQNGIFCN
# [3] = 1 mg/kg daily oral, compared to vehicle, dose-dependent, FIG. 6
# [4] = 1 mg/kg daily oral, compared to vehicle, dose-dependent, FIG. 7
# S1P2 Receptor, sequence (O95136 whole entry): as the sequence (O95136 whole entry) above
Structure (SMILES),"Efficacy, % of S1P (S1P2 Receptor)",Emax (hS1P1),EC50 (hS1P1),"EC50 (hS1PR4; b-arrestin recruitment, hS1PR4)",Emax (hS1PR4; read-out: Emax),"EC50 (hS1PR5; b-arrestin recruitment, hS1PR5)",Emax (hS1PR5; read-out: Emax),Emax (hS1PR1),EC50 (hS1PR1),also measured
"CC(C)Cc1ccc(-c2nc(-c3ccc(CN4CC(C(=O)O)C4)c(F)c3)no2)cc1 [Compound 1, 1-{2-fluoro-4-[5-(4-isobutylphenyl)-1,2,4-oxadiazole-3-yl]benzyl}-3-azetidinecarboxylic acid]",65%,98%,1.8 nM,3.2 nM,104%,0.71 nM,120%,128%,6.2 nM,"EC50 (S1P2 Receptor): 2510 nM; immune cells in bronchoalveolar lavage (BAL) ([1]; 0.1 mg/kg PO): did not have significant effect; immune cells in bronchoalveolar lavage (BAL) ([1]; 1 mg/kg PO): did not have significant effect; lung function measured by airway resistance or elastance ([1]; PO, Methacholine challenge, FIG. 10): no significant effect; skin thickening (ear thickening) ([2]; 0.1 mg/kg daily oral): had no effect; B cells in the skin [2, 3]: reduced; T cells in the skin [2, 3]: reduced; WBC count [2, 4]: reduced; lymphocyte frequency [2, 4]: reduced; skin thickening (ear thickening) ([2]; 1 mg/kg daily oral): reduced skin thickening"
"CCCCCCCCCCCCC/C=C/[C@@H](O)[C@@H](N)COP(=O)(O)O [Compound S1P, sphingosine-1-phosphate]",100%,102%,77 nM,0.99 nM,117%,,114%,113%,18.3 nM,"Emax (hS1PR2): 108%; Emax (hS1PR3): 113%; EC50 (hS1PR3; b-arrestin recruitment, hS1PR3, EC50 [95% confidence interval] (n)): 13.9 nM"
CCCCCCCCc1ccc(CC[C@](N)(CO)COP(=O)(O)O)cc1 [Fingolimod(P)],80%,,,0.76 nM,,,,,,"Emax (hS1PR4; b-arrestin recruitment, hS1PR4, % relative to S1P): 94%; Emax (hS1PR5; b-arrestin recruitment, hS1PR5, % relative to S1P): 62%"
CC(C)Oc1ccc(-c2nc(-c3cccc4c3CC[C@@H]4NCCO)no2)cc1C#N [Ozanimod],,104%,,117 nM,93%,7.3 nM,117%,130%,,
